Data published in patent publication US20030039697A1, “Matrices containing nitric oxide donors and reducing agents and their use” (priority 2002, published 2003).

Tested on: E. coli
Assay type: cell-based

How did the “growth of bacteria (E. coli) with coated catheter segments” value turn out when `N[C@@H](CCC(=O)N[C@@H](CSN=O)C(=O)NCC(=O)O)C(=O)O` [GSNO, S-nitroso-L-glutathione] was run?
Its value is “inhibits growth of bacteria”.
